One test has as its target T1, hM3 receptor (Homo sapiens, UniProt P20309).
T1 construct: expressed in transfected cells
Description: Blockade of agonist-mediated calcium release via FLIPR. It is filed as cell-based. The following applies: CHO cells stably expressing the hM3 receptor, oxotremorine EC90. The source says:
C. Blockade of Agonist-Mediated Calcium Release Via FLIPR Assays
Muscarinic receptor subtypes (M1, M3 and M5 receptors), which couple to Gq proteins, activate the phospholipase C (PLC) pathway upon agonist binding to the receptor. As a result, activated PLC hydrolyzes phosphatyl inositol diphosphate (PIP2) to diacylglycerol (DAG) and phosphatidyl-1,4,5-triphosphate (IP3), which in turn generates calcium release from intracellular stores, i.e., endoplasmic and sarcoplasmic reticulum. […] This fluorescence event is measured in real time by the FLIPR, which detects the change in fluorescence from a monolayer of cells cloned with human M1 and M3, and chimpanzee M5 receptors. Antagonist potency is determined by the ability of antagonists to inhibit agonist-mediated increases in intracellular calcium. […]
To determine antagonist potency, the dose-dependent stimulation of intracellular Ca^2+ release for oxotremorine was first determined so that antagonist potency can later be measured against oxotremorine stimulation at an EC90 concentration. […]
The parameters used for the FLIPR were: exposure length of 0.4 seconds, laser strength of 0.5 watts, excitation wavelength of 488 nm, and emission wavelength of 550 nm. Baseline was determined by measuring the change in fluorescence for 10 seconds prior to addition of agonist. […]

Test [1] addresses T2, M3 muscarinic receptor subtype (hM3) (Homo sapiens, UniProt P20309).
T2 construct: expressed in transfected cells
Description: Radioligand binding assay ([3H]-NMS displacement, CHO cell membranes). Particulars: [3H]-NMS 1 nM, 60 minutes at 37° C. On the procedure:
A. Membrane Preparation from Cells Expressing hM1, hM2, hM3 and hM4 Muscarinic Receptor Subtypes
CHO cell lines stably expressing cloned human hM1, hM2, hM3 and hM4 muscarinic receptor subtypes, respectively, were grown to near confluency in medium consisting of HAM's F-12 supplemented with 10% FBS and 250 μg/mL Geneticin. The cells were grown in a 5% CO2, 37° C. incubator and lifted with 2 mM EDTA in dPBS. Cells were collected by 5 minute centrifugation at 650×g, and cell pellets were either stored frozen at −80° C. or membranes were prepared immediately. For membrane preparation, cell pellets were resuspended in lysis buffer and homogenized with a Polytron PT-2100 tissue disrupter (Kinematica AG; 20 seconds×2 bursts). […] The protein concentration of the membrane suspension was determined by the method described in Lowry, O. et al., […] 193:265 (1951). […]
Radioligand binding assays were performed in 96-well microtiter plates in a total assay volume of 100 μL. […] Filter plates were rinsed three times with wash buffer (10 mM HEPES) to remove unbound radioactivity. […] The plates were then counted in a PerkinElmer Topcount liquid scintillation counter (PerkinElmer Inc., Wellesley, Mass.). Binding data were analyzed by nonlinear regression analysis with the GraphPad Prism Software package (GraphPad Software, Inc., San Diego, Calif.) using the one-site competition model. […]

The results in this text go back to US7524880B2, “Crystalline form of a substituted pyrrolidine compound” (Theravance, Inc., priority 2004, dated 2009).

pKi: −log10 of the molar value.

T2 sequence (P20309 whole entry): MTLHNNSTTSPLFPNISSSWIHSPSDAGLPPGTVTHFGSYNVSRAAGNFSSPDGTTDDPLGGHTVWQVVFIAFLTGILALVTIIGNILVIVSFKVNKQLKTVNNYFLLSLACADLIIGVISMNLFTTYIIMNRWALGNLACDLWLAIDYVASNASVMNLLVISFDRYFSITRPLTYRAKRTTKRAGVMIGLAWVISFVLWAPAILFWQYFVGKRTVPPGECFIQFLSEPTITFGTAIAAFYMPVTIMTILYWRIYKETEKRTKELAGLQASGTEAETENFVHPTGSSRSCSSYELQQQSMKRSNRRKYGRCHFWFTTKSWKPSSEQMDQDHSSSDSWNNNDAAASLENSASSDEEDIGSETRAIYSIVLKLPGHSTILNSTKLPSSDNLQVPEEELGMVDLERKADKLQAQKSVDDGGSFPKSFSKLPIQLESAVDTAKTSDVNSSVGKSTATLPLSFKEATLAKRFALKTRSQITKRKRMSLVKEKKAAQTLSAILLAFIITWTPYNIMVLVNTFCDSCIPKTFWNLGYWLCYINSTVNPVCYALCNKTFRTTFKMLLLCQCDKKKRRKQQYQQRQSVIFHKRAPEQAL
T1 sequence (P20309 whole entry): as above

For orientation: pKi means the Ki on a negative log10 scale, so that one unit is a factor of ten. For `CNCCCCCCCCN1CC[C@@H](C(C(N)=O)(c2ccccc2)c2ccccc2)C1` [compound of formula I, 2-[(S)-1-(8-methylaminooctyl)pyrrolidin-3-yl]-2,2-diphenylacetamide], the pKi is more than 8.30 at hM3 receptor and approximately 9.02 in test [1].
